Measurements as given in patent US20200405867A1, “ORAL DOSAGE FORMS” (Sunovion Pharmaceuticals Inc., priority 2018, published 2020).
Where a name gives a salt, the structure may show the parent alone. Read-outs that look alike come from different tables or passages of the source.

Key:
[1] = type: physicochemical; details: for impurities: four weeks
Source text: A solution must be stable for commercially reasonable periods. […] In experimenting with buffering agents such as tartrate and citrate, precipitation of dasotraline HCl was discovered.

physchem = type: physicochemical
Source text: To make a solution, one must attain sufficient solubility to achieve efficacious levels of an active pharmaceutical ingredient (API) while avoiding precipitation.

[2] = type: physicochemical
Source text: In addition to chemical/physical stability, the formulation must remain free of microbial growth for commercially reasonable periods. Several common preservatives failed when combined with dasotraline HCl and malate buffer.

[3] = capsule, doses of 1 to 8 mg, adult or adolescent; cited from earlier work

impurities ([1]; 10 mM malate buffer, pH≤3.5, 60° C.) | impurities ([1]; higher (25 mM) malate buffer amount, pH>3, 60° C.) [%] | physical stability of solution ([1]; pH 3) | physical stability of solution ([1]; pH 3.5) | physical stability of solution ([1]; pH 5) | pH window of maximal solubility in water (physchem) | solubility (physchem; pH 2.2, aqueous buffer) [µg/mL] | solubility (physchem; pH 2.7, aqueous buffer) [µg/mL] | solubility (physchem; pH 3, aqueous buffer) [µg/mL] | solubility (physchem; pH 3.4, aqueous buffer) [µg/mL] | solubility (physchem; pH 3.9, aqueous buffer) [µg/mL] | solubility (physchem; pH 4.4, aqueous buffer) [µg/mL] | solubility (physchem; pH 4.9, aqueous buffer) [µg/mL] | physical stability of solution [2] | stability of solution ([2]; 4 weeks) | impurities ([2]; malate buffer, 5% propylene glycol, further stress beyond four weeks at 60° C.) [%] | Compound | stability of solution [2] | abuse liability [3] | efficacy in treating ADHD [3]
no detectable impurities | > 0.1 | precipitation | precipitation | precipitation | 2.0-3.0 pH | 1900 | 2200 | 2100 | 1300 | 800 | 600 | 400 | induced precipitation | effective up to four weeks at 60 °C | > 0.1 | N[C@@H]1CC[C@@H](c2ccc(Cl)c(Cl)c2)c2ccccc21 [dasotraline HCl] | stable solution under all conditions tested | – | –
– | – | – | – | – | – | – | – | – | – | – | – | – | – | – | – | N[C@@H]1CC[C@@H](c2ccc(Cl)c(Cl)c2)c2ccccc21 [dasotraline, (1R,4S)-4-(3,4-dichlorophenyl)-1,2,3,4-tetrahydronaphthalen-1-amine] | – | no detectable abuse liability | effective in treating ADHD
